# Experiment: Solubilization of pigment from Lucantin Pink CWD into oil with water and surfactant; absorbance of filtered oil-phase
# Conditions: type A, mix 3 g, surfactant 2 g, Tobis fish-oil 35 g; for Absorbance at 474 nm after 1.5 days in refrigerator and filtration: 0.200 ml diluted to 10 ml
Substance,% recov. after 1.5 days in refrigerator and filtration,Absorbance at 474 nm after 1.5 days in refrigerator and filtration
Sorbitan monostearate,(30.7) %,0.174
sorbitan monooleate [Sorbitan ester monooleate],(27.4) %,0.157

# — patent US20080044538A1, “Method For Pigment Solubilization, A pigment Composition And Its Use” (AKZO NOBEL N.V., priority 2004, published 2008)
